Assay results published in publication PMC9114799, “In vitro Evaluation of Isoniazid Derivatives as Potential Agents Against Drug-Resistant Tuberculosis” (Frontiers in Pharmacology, 2022).
Converted amounts (≈) assume the structure as drawn. “And” between values parts separate entries of the source, which are not always exact repeats. Identical values can stand only once. Like-named read-outs stand apart in the source and are kept apart here. Marks after values point to notes of the source that are not given here.

Tests used:
[1] = target: T1, human serum albumin (HSA) (Homo sapiens, UniProt P02768); conditions: for 10-3 K’b / M-1, HSA binding constant from fluorescence intensity variation not accounted for by the decrease in lifetime: head prints 10-3 K’b / M-1, reverse of the dissociation constant
T1 sequence (P02768 25-609): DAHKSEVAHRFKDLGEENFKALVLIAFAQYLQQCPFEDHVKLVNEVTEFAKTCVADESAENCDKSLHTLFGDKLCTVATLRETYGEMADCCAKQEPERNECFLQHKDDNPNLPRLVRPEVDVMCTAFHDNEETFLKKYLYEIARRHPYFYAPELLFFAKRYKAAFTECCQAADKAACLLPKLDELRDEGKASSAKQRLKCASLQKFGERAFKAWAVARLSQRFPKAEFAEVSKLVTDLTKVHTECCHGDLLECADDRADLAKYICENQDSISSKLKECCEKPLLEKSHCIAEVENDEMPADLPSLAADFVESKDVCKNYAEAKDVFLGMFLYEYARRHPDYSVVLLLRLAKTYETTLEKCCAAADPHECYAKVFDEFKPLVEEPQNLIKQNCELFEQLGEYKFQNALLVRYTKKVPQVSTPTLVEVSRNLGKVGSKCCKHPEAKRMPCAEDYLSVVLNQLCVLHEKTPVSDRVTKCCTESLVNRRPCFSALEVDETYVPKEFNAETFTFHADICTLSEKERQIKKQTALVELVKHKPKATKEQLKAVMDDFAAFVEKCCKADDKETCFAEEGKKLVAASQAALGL
Method: (§1) INH and INH derivatives stock solutions were prepared in DMSO. From the stock solutions, appropriate dilutions were prepared so that each compound was added to HSA in PBS at different concentrations ensuring that DMSO was at a fixed concentration of 5% (v/v) in the final solution. […] Three or more independent replicates were prepared and analyzed for each system.
Quartz Suprasil® cuvettes with 1 × 0.4 cm path length were used to gather the spectroscopic data.
The bandwidth was 4 nm in both excitation and emission paths.
Whenever the decrease in τ¯ is smaller than the decrease in the steady-state fluorescence intensity, there are multiple quenching mechanisms responsible for a decrease in fluorescence quantum yield, one affecting the amplitude-weighted mean fluorescence lifetime and the fluorescence intensity alike, and another affecting only the fluorescence intensity (a static quenching mechanism). Therefore, for each data point, the decrease in fluorescence intensity that was not due to a decrease in τ¯ was calculated. These values were used to obtain yet another dissociation constant that corresponds to the binding process affecting only the steady-state fluorescence intensity, also shown in Table 3 (K’d). […] This is a consequence of the much larger relative decrease in fluorescence intensity when compared with the decrease in fluorescence lifetime.
For a static quenching mechanism, K represents the association constant for the formation of non-fluorescent HSA-compound ground-state complex. Therefore, the reverse of K gives an estimate of the dissociation constant. By fitting a straight line to the data in Figure 8 forcing a unitary intercept, i.e., assuming a Stern-Volmer-like behaviour, a reasonable correlation coefficient was obtained in all cases.

HepG2 cells = experiment: HepG2 cell viability assay (MTT), 72 h; type: cell-based, human; conditions: for IC50: Homo sapiens, HepG2, 72 h incubation, MTT, 0.5% DMSO, read-out: IC50 against HepG2 cells
Method: HepG2 cells were plated on 384-well tissue culture treated polystyrene plates at 2000 cells in 25 μl of HepG2 maintenance medium per well. After an overnight incubation at 37°C, the cells were dosed with test compounds in dimethyl sulfoxide (DMSO) and controls over wide ranges of concentrations (Table 1) and incubated for 72 h at 37°C. DMSO was at 0.5% in the final solution. The aqueous solubility of the compounds limited the range of concentrations tested. Cell viability was measured using the Promega CellTiter 96 Non-Radioactive Cell Proliferation Assay (MTT) kit by adding the Dye Solution to each well and incubating for 3 h at 37°C. After incubation, the Solubilization Solution/Stop Mix was added to each well. Plates were incubated at 37°C for 1 h, mixed on a plate shaker for 10 min and then absorbance was read at 570 nm. Cell viability was determined by comparison against control cells in the presence of DMSO only and was measured in three independent replicates for each compound concentration. The IC50 was calculated with GraphPad Prism using a Sigmoidal Dose-response (variable slope) algorithm. Chlorpromazine, a drug with a well-known and characterized hepatotoxicity ([Frötschl et al., 2005]; [Gandhi et al., 2013]; [Morgan et al., 2019]), was used as the positive control.
To evaluate the in vitro toxicity of this series of INH derivatives, the viability of HepG2 cells, a human liver cancer cell line, was determined by the MTT tetrazolium reduction assay ([Riss et al., 2013]), a colorimetric assay to assess cell metabolic activity, and the IC50 value, i.e., the concentration for 50% reduction in cell viability, was obtained for each compound (Supplementary Figure S6). […] The hepatoxicity of INH is well described ([Girling, 1978]; [Wu and Cederbaum, 1996]; [Huang et al., 2003]; [Bhadauria et al., 2007]; [Singh et al., 2011]) and is much lower than that of chlorpromazine.

[2] = target: T1, human serum albumin (HSA); conditions: for 10-3 K’’b / M-1, HSA binding constant from the variation in amplitude-weighted mean fluorescence lifetime: head prints 10-3 K’’b / M-1, reverse of the dissociation constant
Method: as §1
Time-resolved fluorescence measurements were carried out by the single photon counting technique, using a nanoLED N-280 (Horiba Jobin Yvon, Villeneuve D'ascq, France) for the excitation of the protein. […] Ludox® was the scattering agent used to obtain the instrumental response function. The experimental fluorescence intensity decays were analysed with the software TRFA® version 1.4 (Minsk, Belarus). The fluorescence intensity decays, I(t), were analysed by fitting a sum of exponentials, and the decay law was then obtained according to Eq. 1: I(t)= ∑i=1nαi⁡exp(−t/τi) (1) where α i and τ i are the normalized amplitude and lifetime of component i, respectively.
The changes in quantum yield due to processes affecting the fluorescence lifetime were assessed from the amplitude-weighted mean fluorescence lifetime, τ¯ , calculated using Eq. 2: τ¯=∑i=1nαiτi (2)
When used to analyse time-resolved fluorescence data, F is replaced by τ¯ .

[3] = target: warfarin binding site of HSA (Sudlow's binding site I) (Homo sapiens, UniProt P02768); experiment: Competitive binding with warfarin (HSA Sudlow's binding site I)
Chain of warfarin binding site of HSA (Sudlow's binding site I) (P02768 25-609): as above
Method: Warfarin stock solution was also prepared with DMSO.
The interaction of INH and its derivatives with HSA was further examined regarding their putative binding site.
Using the dampening in the fluorescence intensity of warfarin it is possible to retrieve the HSA-compound dissociation constant for the binding site of warfarin (K dc) - Table 3.
From this variation it is possible to retrieve C50, the concentration of compound that displaces half of […]
This concentration is given by the fluorescence intensity corresponding to […]
the intensity of warfarin in water (buffer), which was obtained for warfarin in PBS in the absence of HSA. The C50 value was retrieved for each replicate and the average was used to calculate the Kdc of […]
(1 picture or pasted object on this page, not shown here)

[4] = Octanol-water partition coefficient, shake-flask method; type: physicochemical; conditions: pH 7.5, room temperature, preliminary assessment
Method: Lipophilicity was evaluated as log Po/w, the octanol-water partition coefficient obtained by the shake-flask method ([Ràfols et al., 2012]; [Martins et al., 2014]), and as log Kp(NaDS/w) the partition coefficient towards sodium dodecyl sulfate (NaDS) anionic micelles obtained by differential spectrophotometry for INH, INH-C10, N33 and N34 in previous works ([Ràfols et al., 2012]; [Martins et al., 2014]; [Santos et al., 2020]). […] For both compounds, samples were dissolved in water-saturated octanol at pH 7.5 (KH2PO4/NaOH) to guarantee negligible ionization. The partition to octanol-saturated aqueous buffer was evaluated, at room temperature, using a volume ratio, ro/w, of 5/30 and 10/30 for N33red and 2.5/40, 5/40 for N34red, after sonication of the solutions and partition on a mechanical tumbler. Equilibrium concentrations were determined by UV-Vis spectrophotometry between 200 and 500 nm after phase separation.

[5] = type: physicochemical; conditions: for stability in aqueous solution: pH 7.4; for fluctuation of the absorption spectra in the UV region: over 3 days, PBS pH 7.4 with 5 % DMSO, N33red at 240 nm, N34red at 269 nm
Method: INH-C10, N33 and N34 were obtained as fully described in reference ([Martins et al., 2014]). N33red and N34red were obtained by reduction of the parent Schiff base. Sodium cyanoborohydride (2 equiv.) was added portion wise to a solution of N33 or N34 in hot methanol. The reaction mixture was acidified with methanolic HCl 5M until pH 3; at that point the solution color changed to dark yellow. The reaction was kept under reflux and monitored by TLC until the starting material was consumed. The solvent was then evaporated under reduced pressure, giving an orange-yellow oil. This residue was dissolved in water and basified to pH > 7 by addition of a few drops of NaOH 6 M, to break up the possible cyanoborate adducts. The solution was then washed with brine and extracted several times with dichloromethane, the combined organic extracts were dried with MgSO4 and the solvent evaporated under reduced pressure affording crude yellowish solids. Pure N33red and N34red were obtained after column chromatography with Et2O/MeOH 96.5:3.5 and by recrystallization from CH2Cl2/petroleum ether 2:3, respectively (adapted from ([Borch et al., 1971])). Both N33red and N34red are very stable in aqueous solution (PBS with 5% DMSO) for at least 48 h (Supplementary Figure S5).
Figure S5 – Electronic absorption spectra of N33red and N34red in PBS buffer pH 7.4 with 5 % DMSO
were monitored over 3 days. The fluctuation of the spectra in the UV region of N33red at 240 nm was
less than 1.2% while for N34red at 269 nm was less than 2.5%. The time dependence of the absorbance
uncertainty, thus confirming the stability of both compounds for at least 3 days.

[6] = tested on: M. tuberculosis H37Rv ATCC27294 (wt); experiment: microbe, parasite or virus in culture; type: cell-based; design: MIC (wt): unit not given here; conditions: for MIC: Mycobacterium tuberculosis, wt Mtb H37Rv, tested from 0.03125 to 128 µM; for MIC (wt): Table S1; for activity against the wild-type strain: in words
HepG2 = conditions: cited from earlier work
[7] = octanol-water, cited from earlier work
[8] = tested on: M. tuberculosis H37Rv ATCC27294 (wt); conditions: ref Martins et al., cited from earlier work
[9] = target: T1, human serum albumin (HSA); design: purchased Merck (Sigma-Aldrich) A9511; method as in Ascenzi et al., 2011; conditions: ref Ascenzi et al., 2011; read-out: K d for HSA previously reported; cited from earlier work
[10] = head prints 10-3 Kbc / M-1, equimolar HSA and warfarin, reverse of the dissociation constant
[11] = HepG2, 72 h incubation, ref Lupien et al., 2018

| SMILES | Kd [1] | IC50 (HepG2 cells) | Kd [2] | Kd [3] | 10-3 Kbc / M-1, binding constant for the warfarin binding site [3, 10] | 10-3 K’b / M-1, HSA binding constant from fluorescence intensity variation not accounted for by the decrease in lifetime [1] | MIC (wt) ([8]; wt Mtb H37Rv, 2014) | other results |
| --- | --- | --- | --- | --- | --- | --- | --- | --- |
| O=C(NNCc1ccc(Oc2ccccc2)cc1)c1ccncc1 [Compound N34red, N'-(4-phenoxybenzyl)isonicotinohydrazide] | 150 µM and 140 µM and 90 µM | 48.5 µM | 730 µM | 340 ± 20 µM | 2.99 ± 0.17 10^3 M-1 | – | – | logP [4]: 2.6 ± 0.2; stability in aqueous solution ([5]; 48 h): at least 48 h; stability in aqueous solution ([5]; 3 days): at least 3 days; fluctuation of the absorption spectra in the UV region [5]: less than 2.5%; MIC [6]: 1 µM (≈ 0.319 µg/mL); MIC (wt) [6]: 0.3; activity against the wild-type strain [6]: active |
| C[C@]1(COc2ccc(N3CCC(Oc4ccc(OC(F)(F)F)cc4)CC3)cc2)Cn2cc([N+](=O)[O-])nc2O1 [delamanid] | – | – | – | – | – | – | – | IC50 (HepG2; [11]): 98.9 µM |
| NNC(=O)c1ccncc1 [INH, isonicotinoylhydrazide, reference compound] | 2.72 mM (2×) and 1.65 mM | > 200 µM | – | 4550 ± 50 µM | 0.22 ± 0.01 10^3 M-1 | 0.37 ± 0.01 10^3 M-1 | 0.29 ^a µM | Kd ([1]; K d for HSA, fluorescence intensity corrected for inner filter effects, steady-state fluorescence, text and Figure S7): ~1000 µM; effect on HepG2 cell viability (HepG2 cells; up to 200 µM, 72 h): did not significantly affect HepG2 cell viability; log P o/w ± SD ([7]; ref Ràfols et al., 2012): −0.85 ± 0.01 ^b; MIC (wt) ([8]; Table S1, 2014 (per Table 2)): 0.04 g/mL (≈ 292 mM); Kd [9]: 390 µM |
| O=C(N/N=C/c1ccc(Oc2ccccc2)cc1)c1ccncc1 [Compound N34, (E)-N'-(4-phenoxybenzylidene)isonicotinohydrazide] | 130 µM and 110 µM and 70 µM | > 200 µM | 521 µM | 128 ± 5 µM | 7.8 ± 0.3 10^3 M-1 | – | 0.95 ^a µM | – |
| COC(=O)c1ccc(CNNC(=O)c2ccncc2)cc1 [Compound N33red, methyl 4-((2-isonicotinoylhydrazinyl)methyl)benzoate] | 600 µM (2×) and 560 µM | > 200 µM | – | 900 ± 300 µM | – | 1.77 ± 0.65 10^3 M-1 | – | Kd ([3]; 10-3 Kbc / M-1, binding constant for the warfarin binding site, head prints 10-3 Kbc / M-1, equimolar HSA and warfarin, reverse of the dissociation constant): 746 µM; logP [4]: 1.33 ± 0.04; stability in aqueous solution ([5]; 48 h): at least 48 h; stability in aqueous solution ([5]; 3 days): at least 3 days; fluctuation of the absorption spectra in the UV region [5]: less than 1.2%; MIC [6]: 2 µM (≈ 0.571 µg/mL); MIC (wt) [6]: 0.6; activity against the wild-type strain [6]: active |
| CCCCCCCCCC(=O)NNC(=O)c1ccncc1 [INH-C10, N′-decanoylisonicotinoylhydrazide] | 46 µM and 50 µM and 70 µM | > 25 µM | 120 ± 3 µM | 400 ± 200 µM | 2.43 ± 0.86 10^3 M-1 | 18.6 ± 5.58 10^3 M-1 | 0.38 ^a µM | log P o/w ± SD ([7]; ref Ràfols et al., 2012): 3.5 ± 0.2 ^b; 10-3 K’’b / M-1, HSA binding constant from the variation in amplitude-weighted mean fluorescence lifetime [2]: 8.33 ± 0.21 10^3 M-1 |
| CN(C)CCCN1c2ccccc2Sc2ccc(Cl)cc21 [Chlorpromazine, reference compound] | – | 13.9 µM | – | – | – | – | – | IC50 (HepG2; same cell line (HepG2), 24 h incubation, ref Wang et al., 2002): 34.7 µM |
| COc1nc2ccc(Br)cc2cc1[C@@H](c1ccccc1)[C@@](O)(CCN(C)C)c1cccc2ccccc12 [bedaquiline] | – | – | – | – | – | – | – | IC50 (HepG2; [11]): 17.4 µM |
| COC(=O)c1ccc(/C=N/NC(=O)c2ccncc2)cc1 [Compound N33, methyl (E)-4-((2-isonicotinoylhydrazineylidene)methyl)benzoate] | 160 µM and 200 µM and 120 µM | > 25 µM | 80 ± 60 µM | 54 ± 4 µM | 18.5 ± 1.3 10^3 M-1 | 5.00 ± 2.50 10^3 M-1 | 1.06 ^a µM | log P o/w ± SD ([7]; ref Martins et al., 2014): 1.32 ± 0.06 ^c; 10-3 K’’b / M-1, HSA binding constant from the variation in amplitude-weighted mean fluorescence lifetime [2]: 12.5 ± 9.4 10^3 M-1 |
| CO[C@H]1/C=C/O[C@@]2(C)Oc3c(C)c(O)c4c(O)c(c(/C=N/N5CCN(C)CC5)c(O)c4c3C2=O)NC(=O)/C(C)=C\C=C\[C@H](C)[C@H](O)[C@@H](C)[C@@H](O)[C@@H](C)[C@H](OC(C)=O)[C@@H]1C [Rifampin] | – | – | – | – | – | – | – | IC50 (HepG2; ref Vahdati-Mashhadian et al., 2013): 25.5 µM |
